This is an account of results in patent US10793568B2, “Hormone receptor modulators for treating metabolic conditions and disorders” (ARDELYX, INC., priority 2016, dated 2020).

The assay concerns the target ligand binding domain of human FXR (Homo sapiens (Human), UniProt Q96RI1). Description: FXR ligand binding assay (LanthaScreen TR-FRET, SRC2-2 peptide recruitment). As to conditions: for Emax: extent of activation relative to GW4064, read-out: % Efficacy. As to the method:
The affinity of FXR ligands for the ligand binding domain of FXR was determined using a commercially available human FXR ligand binding assay (LanthaScreen, Thermofisher Cat # PV4833). […] Binding of FXR ligands to the FXR ligand binding domain promotes binding of the fluorescein-labelled SRC2-2 peptide. This causes a FRET signal between the terbium-labelled anti-GST antibody and the fluorescein-labelled SRC peptide which are both bound to the FXR ligand binding domain.
Test compounds are dissolved in DMSO and a 3-fold serial dilution series is generated, then further diluted into assay buffer. The compounds are mixed with 5 nM GST-tagged FXR ligand binding domain, 5 nM Tb-labelled anti-GST antibody and 500 nM fluorescein-labelled SRC2-2 peptide in a pH7.4 buffer. The reaction is incubated at room temperature for 1 hour, then the FRET signal is measured as the ratio of the 520 nm/495 nm emission following excitation at 340 nm. The change in FRET signal is plotted against the test article concentration and fit to a 3-parameter logistical equation. The concentration required to produce 50% activation is expressed as pEC50 (−log EC50), and the extent of activation is expressed relative to GW4064 as % activation.

[1] abbreviates: -log EC50, concentration required to produce 50% activation.

Chain of ligand binding domain of human FXR (Q96RI1 262-486): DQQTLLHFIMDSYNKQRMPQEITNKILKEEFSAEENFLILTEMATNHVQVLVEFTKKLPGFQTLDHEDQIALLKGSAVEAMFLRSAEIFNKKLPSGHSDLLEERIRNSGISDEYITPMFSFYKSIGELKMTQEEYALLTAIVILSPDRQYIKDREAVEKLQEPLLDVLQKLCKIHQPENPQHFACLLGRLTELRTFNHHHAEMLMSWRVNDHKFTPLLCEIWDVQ

Consider `Cc1cc(C(=O)NO)ccc1N1C[C@@H]2C[C@H]1C[C@H]2OCc1c(-c2c(Cl)cccc2Cl)noc1C1CC1` [Compound I-139, 4-[(1S,4S,5R)-5-{[5-cyclopropyl-3-(2,6-dichlorophenyl)-1,2-oxazol-4-yl]methoxy}-2-azabicyclo[2.2.1]heptan-2-yl]-N-hydroxy-3-methylbenzamide], for which the Emax was found to be 132%. Also, the EC50 under setting [1] was 0.631 nM. Usually pEC50 stands for the EC50 on a negative log10 scale, so that one unit is a factor of ten. Read a high pEC50 as a low EC50. For `O=C(O)c1ccc(N2C(=O)[C@@H]3C[C@H]2C[C@H]3OCc2c(-c3c(Cl)cccc3Cl)noc2C2CC2)cn1` [Compound I-321, 5-[(1S,4R,5R)-5-{[5-cyclopropyl-3-(2,6-dichlorophenyl)-1,2-oxazol-4-yl]methoxy}-3-oxo-2-azabicyclo[2.2.1]heptan-2-yl]pyridine-2-carboxylic Acid], the Emax is 146%. The molecule further came in with a pEC50 under setting [1] of 7.6. The matching figures for `O=C(O)c1ccc(N2C(=O)[C@@H]3C[C@H]2C[C@H]3OCc2c(-c3c(Cl)cccc3Cl)noc2C2CC2)nc1` [Compound I-322, 6-[(1S,4R,5R)-5-{[5-cyclopropyl-3-(2,6-dichlorophenyl)-1,2-oxazol-4-yl]methoxy}-3-oxo-2-azabicyclo[2.2.1]heptan-2-yl]pyridine-3-carboxylic acid]: 132% and 7.4. For `O=C(O)c1ncc(N2C(=O)[C@@H]3C[C@H]2C[C@H]3OCc2c(-c3c(Cl)cccc3Cl)noc2C2CC2)cn1` [Compound I-323, 5-[(1S,4R,5R)-5-{[5-cyclopropyl-3-(2,6-dichlorophenyl)-1,2-oxazol-4-yl]methoxy}-3-oxo-2-azabicyclo[2.2.1]heptan-2-yl]pyrimidine-2-carboxylic Acid] the same measures were 103% and 6.4.

`O=C(O)c1cnc(N2C(=O)[C@@H]3C[C@H]2C[C@H]3OCc2c(-c3c(Cl)cccc3Cl)noc2C2CC2)cn1` [Compound I-324, 5-[(1S,4R,5R)-5-{[5-cyclopropyl-3-(2,6-dichlorophenyl)-1,2-oxazol-4-yl]methoxy}-3-oxo-2-azabicyclo[2.2.1]heptan-2-yl]pyrazine-2-carboxylic Acid]: the Emax was determined as 140%. This molecule also yielded a pEC50 under setting [1] of 7.1. For `O=C(O)c1ccc(N2C(=O)[C@@H]3C[C@H]2C[C@H]3OCc2c(-c3c(Cl)cccc3Cl)noc2C2CC2)nn1` [Compound I-325, 6-[(1S,4R,5R)-5-{[5-cyclopropyl-3-(2,6-dichlorophenyl)-1,2-oxazol-4-yl]methoxy}-3-oxo-2-azabicyclo[2.2.1]heptan-2-yl]pyridazine-3-carboxylic Acid] the same measures were 104% and 6.6.

For `O=C(O)c1ncc(N2C(=O)[C@@H]3C[C@H]2C[C@H]3OCc2c(-c3c(Cl)cccc3Cl)noc2C2CC2)cc1F` [Compound I-326, 5-[(1S,4R,5R)-5-{[5-cyclopropyl-3-(2,6-dichlorophenyl)-1,2-oxazol-4-yl]methoxy}-3-oxo-2-azabicyclo[2.2.1]heptan-2-yl]-3-fluoropyridine-2-carboxylic Acid], the Emax came to 132%. The pEC50 under setting [1] is 7.1. `O=C(O)CCc1ccc(N2C(=O)[C@@H]3C[C@H]2C[C@H]3OCc2c(-c3c(Cl)cccc3Cl)noc2C2CC2)cn1` [Compound I-327, 3-{5-[(1S,4R,5R)-5-{[5-cyclopropyl-3-(2,6-dichlorophenyl)-1,2-oxazol-4-yl]methoxy}-3-oxo-2-azabicyclo[2.2.1]heptan-2-yl]pyridin-2-yl}propanoic Acid] yielded a pEC50 under setting [1] above 5.5.

On to `O=C(O)CCc1ncc(N2C(=O)[C@@H]3C[C@H]2C[C@H]3OCc2c(-c3c(Cl)cccc3Cl)noc2C2CC2)cc1F` [Compound I-328, 3-{5-[(1S,4R,5R)-5-{[5-cyclopropyl-3-(2,6-dichlorophenyl)-1,2-oxazol-4-yl]methoxy}-3-oxo-2-azabicyclo[2.2.1]heptan-2-yl]-3-fluoropyridin-2-yl}propanoic Acid], for which the Emax is 87%. The molecule further registered a pEC50 under setting [1] of 6.9. For `CO[C@@H]1CCC[C@H]1S(=O)(=O)NC(=O)c1ncc(N2C(=O)[C@@H]3C[C@H]2C[C@H]3OCc2c(-c3c(Cl)cccc3Cl)noc2C2CC2)cc1F` [Compound I-348, 5-[(1S,4R,5R)-5-{[5-cyclopropyl-3-(2,6-dichlorophenyl)-1,2-oxazol-4-yl]methoxy}-3-oxo-2-azabicyclo[2.2.1]heptan-2-yl]-3-fluoro-N-{[(1R,2R)-2-methoxycyclopentyl]sulfonyl}pyridine-2-carboxamide] the same measures were 171% and 8.

Regarding `O=C(NS(=O)(=O)[C@@H]1CCC[C@H]1O)c1ncc(N2C(=O)[C@@H]3C[C@H]2C[C@H]3OCc2c(-c3c(Cl)cccc3Cl)noc2C2CC2)cc1F` [Compound I-349, 5-[(1S,4R,5R)-5-{[5-cyclopropyl-3-(2,6-dichlorophenyl)-1,2-oxazol-4-yl]methoxy}-3-oxo-2-azabicyclo[2.2.1]heptan-2-yl]-3-fluoro-N-{[(1R,2R)-2-hydroxycyclopentyl]sulfonyl}pyridine-2-carboxamide], the Emax was 171%. For the same molecule, the pEC50 under setting [1] is recorded as 8.2. For `O=C(NS(=O)(=O)[C@@H]1CCC[C@H]1O)c1ccc(N2C(=O)[C@@H]3C[C@H]2C[C@H]3OCc2c(-c3c(Cl)cccc3Cl)noc2C2CC2)cn1` [Compound I-350, 5-[(1S,4R,5R)-5-{[5-cyclopropyl-3-(2,6-dichlorophenyl)-1,2-oxazol-4-yl]methoxy}-3-oxo-2-azabicyclo[2.2.1]heptan-2-yl]-N-{[(1R,2R)-2-hydroxycyclopentyl]sulfonyl}pyridine-2-carboxamide] the same measures were 170% and 8.1. For `O=C(NS(=O)(=O)C1CC1)c1ccc(N2C(=O)[C@@H]3C[C@H]2C[C@H]3OCc2c(-c3c(Cl)cccc3Cl)noc2C2CC2)cn1` [Compound I-351, 5-((1S,4R,5R)-5-((5-cyclopropyl-3-(2,6-dichlorophenyl)isoxazol-4-yl)methoxy)-3-oxo-2-azabicyclo[2.2.1]heptan-2-yl)-N-(cyclopropylsulfonyl)picolinamide] the same measures were 132% and 7.6. Take `O=C(NS(=O)(=O)C1CCOCC1)c1ccc(N2C(=O)[C@@H]3C[C@H]2C[C@H]3OCc2c(-c3c(Cl)cccc3Cl)noc2C2CC2)cn1` [Compound I-352, 5-((1S,4R,5R)-5-((5-cyclopropyl-3-(2,6-dichlorophenyl)isoxazol-4-yl)methoxy)-3-oxo-2-azabicyclo[2.2.1]heptan-2-yl)-N-((tetrahydro-2H-pyran-4-yl)sulfonyl)picolinamide]: the Emax came out at 154%. Besides, the pEC50 under setting [1] is recorded as 8. The matching figures for `O=C(NS(=O)(=O)C1CCCC1)c1ccc(N2C(=O)[C@@H]3C[C@H]2C[C@H]3OCc2c(-c3c(Cl)cccc3Cl)noc2C2CC2)cn1` [Compound I-353, N-(cyclopentylsulfonyl)-5-((1S,4R,5R)-5-((5-cyclopropyl-3-(2,6-dichlorophenyl)isoxazol-4-yl)methoxy)-3-oxo-2-azabicyclo[2.2.1]heptan-2-yl)picolinamide]: 159% and 8.3. The matching figures for `CC1(C)CC(S(=O)(=O)NC(=O)c2ccc(N3C(=O)[C@@H]4C[C@H]3C[C@H]4OCc3c(-c4c(Cl)cccc4Cl)noc3C3CC3)cn2)CCO1` (stereo partly drawn) [Compound I-354, 5-((1S,4R,5R)-5-((5-cyclopropyl-3-(2,6-dichlorophenyl)isoxazol-4-yl)methoxy)-3-oxo-2-azabicyclo[2.2.1]heptan-2-yl)-N-((2,2-dimethyltetrahydro-2H-pyran-4-yl)sulfonyl)picolinamide]: 138% and 8.1. The matching figures for `O=C(NS(=O)(=O)C1CC1)c1ncc(N2C(=O)[C@@H]3C[C@H]2C[C@H]3OCc2c(-c3c(Cl)cccc3Cl)noc2C2CC2)cc1F` [Compound I-355, 5-((1S,4R,5R)-5-((5-cyclopropyl-3-(2,6-dichlorophenyl)isoxazol-4-yl)methoxy)-3-oxo-2-azabicyclo[2.2.1]heptan-2-yl)-N-(cyclopropylsulfonyl)-3-fluoropicolinamide]: 157% and 7.9. As to `O=C(NS(=O)(=O)C1CCCC1)c1ncc(N2C(=O)[C@@H]3C[C@H]2C[C@H]3OCc2c(-c3c(Cl)cccc3Cl)noc2C2CC2)cc1F` [Compound I-356, N-(cyclopentylsulfonyl)-5-((1S,4R,5R)-5-((5-cyclopropyl-3-(2,6-dichlorophenyl)isoxazol-4-yl)methoxy)-3-oxo-2-azabicyclo[2.2.1]heptan-2-yl)-3-fluoropicolinamide], the Emax amounted to 168%. This molecule also yielded a pEC50 under setting [1] of 8.6. For `CC1(C)CC(S(=O)(=O)NC(=O)c2ncc(N3C(=O)[C@@H]4C[C@H]3C[C@H]4OCc3c(-c4c(Cl)cccc4Cl)noc3C3CC3)cc2F)CCO1` (stereo partly drawn) [Compound I-357, 5-((1S,4R,5R)-5-((5-cyclopropyl-3-(2,6-dichlorophenyl)isoxazol-4-yl)methoxy)-3-oxo-2-azabicyclo[2.2.1]heptan-2-yl)-N-((2,2-dimethyltetrahydro-2H-pyran-4-yl)sulfonyl)-3-fluoropicolinamide], the Emax came to 166%. Under setting [1], this molecule came in with a pEC50 of 8.4.

Turning to `C[C@H]1[C@H]2C[C@H](C[C@@H]2OCc2c(-c3c(Cl)cccc3Cl)noc2C2CC2)N1c1ccc(C(=O)O)cc1` [Compound I-361, 4-[(1R,3S,4R,5S)-5-[[5-cyclopropyl-3-(2,6-dichlorophenyl)-1,2-oxazol-4-yl]methoxy]-3-methyl-2-azabicyclo[2.2.1]heptan-2-yl]benzoic acid], the Emax was found to be 52%. This molecule also had a pEC50 under setting [1] of 6.
